According to patent publication US9643953B2, “Substituted benzylpyrazoles” (Bayer Intellectual Property GmbH, priority 2011, dated 2017):
Where two headings read alike, the source gives them in different places.

Key:
HeLa cell line = assay: Proliferation assay (HeLa cell line); settings: Homo sapiens, HeLa, 96 h;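 note: crystal violet staining of cell number, absorbance read at 595 nm, compounds tested at 0.001–10 µM, zero-point plate taken as 0% and untreated cells as 100%, four-parameter fit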
Method: Cultivated tumor cells (cells were ordered from ATCC, except HeLa-MaTu and HeLa-MaTu-ADR, which were ordered from EPO-GmbH, Berlin) were plated at a density of 1000 to 5000 cells/well, depending on the growth rate of the respective cell line, in a 96-well multititer plate in 200 μL of their respective growth medium supplemented 10% fetal calf serum. After 24 hours, the cells of one plate (zero-point plate) were stained with crystal violet (see below), while the medium of the other plates was replaced by fresh culture medium (200 μl), to which the test substances were added in various concentrations (0 μM, as well as in the range of 0.001-10 μM; the final concentration of the solvent dimethyl sulfoxide was 0.5%). The cells were incubated for 4 days in the presence of test substances. Cell proliferation was determined by staining the cells with crystal violet: the cells were fixed by adding 20 μl/measuring point of an 11% glutaric aldehyde solution for 15 minutes at room temperature. After three washing cycles of the fixed cells with water, the plates were dried at room temperature. The cells were stained by adding 100 μl/measuring point of a 0.1% crystal violet solution (pH 3.0). After three washing cycles of the stained cells with water, the plates were dried at room temperature. The dye was dissolved by adding 100 μl/measuring point of a 10% acetic acid solution. Absorption was determined by photometry at a wavelength of 595 nm. The change of cell number, in percent, was calculated by normalization of the measured values to the absorption values of the zero-point plate (=0%) and the absorption of the untreated (0 μm) cells (=100%). The IC50 values were determined by means of a 4 parameter fit.

[1] = molecular target: T1, catalytic domain of human Bub1 (amino acids 704-1085) (Homo sapiens, UniProt O43683); assay: Bub1 kinase assay (TR-FRET); format: biochemical; settings: ATP 10 μM, peptide substrate 1 μM, 60 min at 22° C.
T1 construct: catalytic domain of human Bub1 (amino acids 704-1085); His6 (N); made in house; host or cells: Hi5 insect cells
Method: To this end, 100-fold concentrated compound solutions (in DMSO) were previously prepared by serial dilution (1:3.4) of 2 mM stocks in a clear low volume 384-well source microtiter plate (Greiner Bio-One, Frickenhausen, Germany), from which 50 nl of compounds were transferred into a black low volume test microtiter plate from the same supplier. […] The resulting mixture (5 μl final volume) was incubated at 22° C. during 60 min., and the reaction was stopped by the addition of 5 μl of an aqueous EDTA-solution (50 mM EDTA, in 100 mM HEPES pH 7.5 and 0.2% (w/v) bovine serum albumin) which also contained the TR-FRET detection reagents (0.2 μM streptavidin-XL665 [Cisbio Bioassays, Codolet, France] and 1 nM anti-phosho-Serine antibody [Merck Millipore, cat. #35-001] and 0.4 nM LANCE EU-W1024 labeled anti-mouse IgG antibody [Perkin-Elmer, product no. AD0077, alternatively a Terbium-cryptate-labeled anti-mouse IgG antibody from Cisbio Bioassays can be used]). The stopped reaction mixture was further incubated 1 h at 22° C. in order to allow the formation of complexes between peptides and detection reagents. Subsequently, the amount of product was evaluated by measurement of the resonance energy transfer from the Eu-chelate-antibody complex recognizing the Phosphoserine residue to the streptavidin-XL665 bound to the biotin moiety of the peptide. […] IC50 values were calculated by fitting the normalized inhibition data to a 4-parameter logistic equation (Minimum, Maximum, IC50, Hill; Y=Max+(Min−Max)/(1+(X/IC50)Hill)).

[2] = read-out: Biological Assay 2: Proliferation assay (HeLa cell line) median IC50
[3] = TR-FRET, read-out: Biological Assay 1: Bub1 kinase assay median IC50
[4] = read-out: Biological Assay 2: Proliferation assay (HeLa cell line) median IC50, HeLa cells, 4 days incubation, crystal violet staining
[5] = Biological Assay 1: Bub1 kinase assay median IC50, TR-FRET

T1 sequence (O43683 704-1085): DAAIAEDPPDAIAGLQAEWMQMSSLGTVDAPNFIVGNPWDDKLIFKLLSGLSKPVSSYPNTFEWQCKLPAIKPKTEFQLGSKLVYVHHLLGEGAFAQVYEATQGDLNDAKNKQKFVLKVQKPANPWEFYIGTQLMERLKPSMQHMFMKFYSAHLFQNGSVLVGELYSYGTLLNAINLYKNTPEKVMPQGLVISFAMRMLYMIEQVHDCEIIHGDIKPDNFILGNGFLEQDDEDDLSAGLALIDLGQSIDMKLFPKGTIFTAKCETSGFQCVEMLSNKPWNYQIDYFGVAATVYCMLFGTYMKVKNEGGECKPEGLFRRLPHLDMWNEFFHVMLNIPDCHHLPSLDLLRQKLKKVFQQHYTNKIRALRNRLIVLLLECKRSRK

Row | Structure (SMILES) | IC50 (HeLa cell line; [2]) [nM] | IC50 [1, 3] [nM] | IC50 (HeLa cell line; [4]) [nM] | IC50 [1, 5] [nM]
1 | COc1ccc(Cn2nc(-c3ncc(OC)c(Nc4ccncc4)n3)cc2C2CC2)cc1 [Example 2-1-8, 2-[5-cyclopropyl-1-(4-methoxybenzyl)-1H-pyrazol-3-yl]-5-methoxy-N-(pyridin-4-yl)pyrimidin-4-amine] | > 10000 | 73.8 |  | 
2 | COc1cnc(-c2nn(Cc3c(Cl)cccc3Cl)c(C3CC3)c2C)nc1Nc1ccncc1 [Example 2-1-9, 2-[5-cyclopropyl-1-(2,6-dichlorobenzyl)-4-methyl-1H-pyrazol-3-yl]-5-methoxy-N-(pyridin-4-yl)pyrimidin-4-amine] | > 10000 | 5.76 |  | 
3 | COc1cnc(-c2nn(Cc3ccccc3F)c(C3CC3)c2C)nc1Nc1ccncc1 [Example 2-1-10, 2-[5-cyclopropyl-1-(2-fluorobenzyl)-4-methyl-1H-pyrazol-3-yl]-5-methoxy-N-(pyridin-4-yl)pyrimidin-4-amine] | 3490 | 36.5 |  | 
4 | COc1cnc(-c2nn(Cc3c(Cl)cccc3Cl)c(OC)c2C)nc1Nc1ccncc1 [Example 2-1-11, 2-[1-(2,6-dichlorobenzyl)-5-methoxy-4-methyl-1H-pyrazol-3-yl]-5-methoxy-N-(pyridin-4-yl)pyrimidin-4-amine] | 2740 | 7.86 |  | 
5 | CCOc1cc(F)c(Cn2nc(-c3ncc(O)c(Nc4ccncc4)n3)c(C)c2C2CC2)c(Sc2ccccc2)c1 [Example 2-2-2, 2-{5-cyclopropyl-1-[4-ethoxy-2-fluoro-6-(phenylsulfanyl)benzyl]-4-methyl-1H-pyrazol-3-yl}-4-(pyridin-4-ylamino)pyrimidin-5-ol] |  | 53.9 | 4970 | 
6 | CCOc1cc(F)c(Cn2nc(-c3ncc(OCC4(CO)COC4)c(Nc4ccncc4)n3)c(C)c2C2CC2)c(F)c1 [Example 2-3-2, {3-[({2-[5-cyclopropyl-1-(4-ethoxy-2,6-difluorobenzyl)-4-methyl-1H-pyrazol-3-yl]-4-(pyridin-4-ylamino)pyrimidin-5-yl}oxy)methyl]oxetan-3-yl}methanol] | 6000 |  |  | 5.23
7 | CCOc1cc(F)c(Cn2nc(-c3ncc(OCCO)c(Nc4ccncc4)n3)c(C)c2C2CC2)c(F)c1 [Example 2-3-3, 2-({2-[5-cyclopropyl-1-(4-ethoxy-2,6-difluorobenzyl)-4-methyl-1H-pyrazol-3-yl]-4-(pyridin-4-ylamino)pyrimidin-5-yl}oxy)ethanol] | 3590 |  |  | 7.86
8 | CCOc1cc(F)c(Cn2nc(-c3ncc(OCCSC)c(Nc4ccncc4)n3)c(C)c2C2CC2)c(F)c1 [Example 2-3-4, 2-[5-cyclopropyl-1-(4-ethoxy-2,6-difluorobenzyl)-4-methyl-1H-pyrazol-3-yl]-5-[2-(methylsulfanyl)ethoxy]-N-(pyridin-4-yl)pyrimidin-4-amine] | 5570 |  |  | 10.8
9 | CCOc1cc(F)c(Cn2nc(-c3ncc(OCS(N)(=O)=O)c(Nc4ccncc4)n3)c(C)c2C2CC2)c(F)c1 [Example 2-3-5, 1-({2-[5-cyclopropyl-1-(4-ethoxy-2,6-difluorobenzyl)-4-methyl-1H-pyrazol-3-yl]-4-(pyridin-4-ylamino)pyrimidin-5-yl}oxy)methanesulfonamide] | 3200 |  |  | 5.55
10 | CCOc1cc(F)c(Cn2nc(-c3ncc(OCCCSC)c(Nc4ccncc4)n3)c(C)c2C2CC2)c(F)c1 [Example 2-3-8, 2-[5-cyclopropyl-1-(4-ethoxy-2,6-difluorobenzyl)-4-methyl-1H-pyrazol-3-yl]-5-[3-(methylsulfanyl)propoxy]-N-(pyridin-4-yl)pyrimidin-4-amine] | 2960 |  |  | 13.7
11 | CCOc1cc(F)c(Cn2nc(-c3ncc(OCC4(CO)COC4)c(Nc4ccncc4)n3)c(C)c2C2CC2)c(Sc2ccccc2)c1 [Example 2-3-9, [3-({[2-{5-cyclopropyl-1-[4-ethoxy-2-fluoro-6-(phenylsulfanyl)benzyl]-4-methyl-1H-pyrazol-3-yl}-4-(pyridin-4-ylamino)pyrimidin-5-yl]oxy}methyl)oxetan-3-yl]-methanol] |  | 249 | 6460 | 
12 | COc1cnc(-c2cc(OC)n(Cc3ccccc3F)n2)nc1Nc1ccncc1C(N)=O [Example 2-4-1, 4-({2-[1-(2-fluorobenzyl)-5-methoxy-1H-pyrazol-3-yl]-5-methoxypyrimidin-4-yl}amino)pyridine-3-carboxamide] | > 10000 | 41.5 |  | 
13 | CCOc1cc(F)c(Cn2nc(-c3ncc(OC)c(Nc4ccncc4C(N)=O)n3)c(C)c2C2CC2)c(F)c1 [Example 2-4-2, 4-({2-[5-cyclopropyl-1-(4-ethoxy-2,6-difluorobenzyl)-4-methyl-1H-pyrazol-3-yl]-5-methoxypyrimidin-4-yl}amino)nicotinamide] | 3230 |  |  | 10.5
14 | CCOc1cc(F)c(Cn2nc(-c3nccc(Nc4ccncc4C(N)=O)n3)c(C)c2C2CC2)c(F)c1 [Example 2-4-3, 4-({2-[5-cyclopropyl-1-(4-ethoxy-2,6-difluorobenzyl)-4-methyl-1H-pyrazol-3-yl]pyrimidin-4-yl}amino)nicotinamide] | 4460 |  |  | 9.32
15 | CCOc1cc(F)c(Cn2nc(-c3nccc(Nc4ccncc4C#N)n3)c(C)c2C2CC2)c(F)c1 [Example 2-6-6, 4-({2-[5-cyclopropyl-1-(4-ethoxy-2,6-difluorobenzyl)-4-methyl-1H-pyrazol-3-yl]pyrimidin-4-yl}amino)nicotinonitrile] | > 10000 |  |  | 8.77
16 | CCOc1cc(F)c(Cn2nc(-c3ncc(OCCC[S+](C)[O-])c(Nc4ccncc4)n3)c(C)c2C2CC2)c(F)c1 (stereo not drawn) [Example 2-8-4, 2-[5-cyclopropyl-1-(4-ethoxy-2,6-difluorobenzyl)-4-methyl-1H-pyrazol-3-yl]-5-[3-(methylsulfinyl)propoxy]-N-(pyridin-4-yl)pyrimidin-4-amine] |  | 7.9 | 4310 | 
17 | CCOc1cc(F)c(Cn2nc(-c3ncc(OCCS(C)(=O)=O)c(Nc4ccncc4)n3)c(C)c2C2CC2)c(F)c1 [Example 2-9-1, 2-[5-cyclopropyl-1-(4-ethoxy-2,6-difluorobenzyl)-4-methyl-1H-pyrazol-3-yl]-5-[2-(methylsulfonyl)ethoxy]-N-(pyridin-4-yl)pyrimidin-4-amine] | 5170 |  |  | 7.87
18 | COc1cnc(-c2nn(Cc3c(F)c(F)c(OCC(F)(F)F)c(F)c3F)c(C3CC3)c2C)nc1Nc1ccncc1 [Example 2-10-2, 2-{5-cyclopropyl-4-methyl-1-[2,3,5,6-tetrafluoro-4-(2,2,2-trifluoroethoxy)benzyl]-1H-pyrazol-3-yl}-5-methoxy-N-(pyridin-4-yl)pyrimidin-4-amine] | 5280 | 61.3 |  | 
